The results in this text go back to PMC4648050, “Discovery of Inhibitors of Trypanosoma brucei by Phenotypic Screening of a Focused Protein Kinase Library” (Chemmedchem, 2015).

Structures are written as SMILES.

Series [1] is described as follows: Intrinsic clearance in mouse liver microsomes. As to conditions: mouse hepatic microsomes, 0.5 μM compound. The format is in vitro ADME. As for the experimental part:
Intrinsic clearance experiments: Test compound (0.5 μM) was incubated with female CD1 mouse liver microsomes (Xenotech LLC; 0.5 mg mL^−1 50 mM potassium phosphate buffer, pH 7.4), and the reaction started with the addition of excess NADPH (8 mg mL^−1 50 mM potassium phosphate buffer, pH 7.4). Immediately, at t0, then at 3, 6, 9, 15, and 30 min an aliquot (50 μL) of the incubation mixture was removed and mixed with MeCN (100 μL) to stop the reaction. Internal standard was added to all samples, the samples were centrifuged to sediment precipitated protein, and the plates were then sealed prior to UPLC–MS/MS analysis using a Quattro Premier XE instrument (Waters Corp., USA). XLfit (IDBS, UK) was used to calculate the exponential decay and consequently the rate constant (k) from the ratio of peak area of test compound to internal standard at each time point. The rate of intrinsic clearance [CLint, mL min^−1 (g liver)^−1] of each test compound was then calculated with Equation (3): […]
in which V [mL (mg protein)^−1] is the incubation volume per mg protein added, and microsomal protein yield is taken as 52.5 mg protein per gram of liver. Verapamil (0.5 μM) was used as a positive control to confirm acceptable assay performance.

The target in the next series is ROCK 2 (Homo sapiens, UniProt O75116). As to the kind of experiment: Kinase panel: ROCK 2. The format is biochemical, human/mammalian. As to conditions: compound at 10 μM, read-out: % of activity respect of the control. The procedure:
(§1) The DDU kinase-focused compound set contains lead-like scaffolds that are designed to target protein kinases; they have kinase hinge binding motifs. Four of the 1H-imidazopyrazinones were screened against a human/mammalian kinase panel at the University of Dundee (http://www.kinase-screen.mrc.ac.uk) at a concentration of 10 μM. At the time of testing the panel contained 79 mammalian kinases selected to provide a broad coverage of the mammalian kinome (∼500 kinases in the human genome).[3] None of the compounds were active against any of the kinases at 10 μM.

For a further series, the target named is MNK1 (Homo sapiens, UniProt Q9BUB5). As to the kind of experiment: Kinase panel: MNK1. The format is biochemical, human/mammalian. To be noted: compound at 10 μM, read-out: % of activity respect of the control. The procedure: as §1
A further series concerns the target MAPKAP-K2 (Homo sapiens, UniProt P49137). Put plainly: Kinase panel: MAPKAP-K2. The format is biochemical, human/mammalian. To be noted: compound at 10 μM, read-out: % of activity respect of the control. As for the experimental part: as §1
The subject of a further series is PHK. As to the kind of experiment: Kinase panel: PHK. Type of series: biochemical, human/mammalian. As to conditions: compound at 10 μM. The procedure:
as §1

In a further series the target is CHK2 (Homo sapiens, UniProt O96017). Put plainly: Kinase panel: CHK2. The format is biochemical, human/mammalian. As to conditions: compound at 10 μM, read-out: % of activity respect of the control. As for the experimental part: as §1
A further series has as its target PLK1 (Homo sapiens, UniProt P53350). Put plainly: Kinase panel: PLK1. Type of series: biochemical, human/mammalian. As to conditions: compound at 10 μM, read-out: % of activity respect of the control. As for the experimental part: as §1
A further series has as its target PLK1 (Okadaic Acid) (Homo sapiens, UniProt P53350). As to the kind of experiment: Kinase panel: PLK1 (Okadaic Acid). Type of series: biochemical, human/mammalian. As to conditions: compound at 10 μM, read-out: % of activity respect of the control. As for the experimental part: as §1
A further series concerns AMPK. Put plainly: Kinase panel: AMPK. The format is biochemical, human/mammalian. To be noted: compound at 10 μM. The procedure: as §1
Another series has as its target CK1 (Homo sapiens, UniProt P48730). Put plainly: Kinase panel: CK1. The format is biochemical, human/mammalian. To be noted: compound at 10 μM, read-out: % of activity respect of the control. The procedure:
as §1

Another series deals with CK2 (Homo sapiens, UniProt P68400). As to the kind of experiment: Kinase panel: CK2. As to conditions: compound at 10 μM, read-out: % of activity respect of the control. The format is biochemical, human/mammalian. The procedure: as §1
Another series has as its target T1, DYRK2 (Homo sapiens, UniProt Q92630).
T1 sequence (Q92630 1-601): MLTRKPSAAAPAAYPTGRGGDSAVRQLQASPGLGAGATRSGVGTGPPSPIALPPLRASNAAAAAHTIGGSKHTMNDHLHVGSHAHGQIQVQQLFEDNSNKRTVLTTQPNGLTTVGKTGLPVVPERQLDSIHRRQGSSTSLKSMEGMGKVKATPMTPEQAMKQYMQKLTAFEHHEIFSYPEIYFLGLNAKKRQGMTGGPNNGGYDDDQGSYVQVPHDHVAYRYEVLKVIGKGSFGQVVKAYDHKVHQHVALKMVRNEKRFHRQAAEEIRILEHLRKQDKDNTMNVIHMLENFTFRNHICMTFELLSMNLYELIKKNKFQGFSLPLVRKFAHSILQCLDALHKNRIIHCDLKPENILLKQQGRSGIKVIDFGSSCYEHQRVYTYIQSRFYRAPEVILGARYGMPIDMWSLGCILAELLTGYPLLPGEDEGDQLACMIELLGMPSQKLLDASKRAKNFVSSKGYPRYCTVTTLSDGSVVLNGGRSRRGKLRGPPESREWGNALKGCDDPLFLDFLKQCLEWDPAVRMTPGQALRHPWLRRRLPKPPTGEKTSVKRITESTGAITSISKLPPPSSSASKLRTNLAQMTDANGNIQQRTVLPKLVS
As to the kind of experiment: Kinase panel: DYRK2. The format is biochemical, human/mammalian. To be noted: compound at 10 μM, read-out: % of activity respect of the control. The procedure: as §1

A further series deals with T2, NEK2a (Homo sapiens, UniProt P51955).
T2 sequence (P51955 1-445): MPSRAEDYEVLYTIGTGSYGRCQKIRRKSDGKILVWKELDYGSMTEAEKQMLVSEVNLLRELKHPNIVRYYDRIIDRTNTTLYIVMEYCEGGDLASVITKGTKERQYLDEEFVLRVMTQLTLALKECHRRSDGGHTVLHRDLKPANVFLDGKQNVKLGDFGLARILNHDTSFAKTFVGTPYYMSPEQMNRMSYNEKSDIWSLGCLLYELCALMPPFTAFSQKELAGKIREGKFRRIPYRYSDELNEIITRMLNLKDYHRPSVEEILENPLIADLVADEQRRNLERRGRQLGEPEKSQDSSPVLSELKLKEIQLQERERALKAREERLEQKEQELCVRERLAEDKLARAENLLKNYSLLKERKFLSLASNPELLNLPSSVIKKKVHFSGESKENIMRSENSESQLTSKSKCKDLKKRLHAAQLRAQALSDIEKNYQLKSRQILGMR
As to the kind of experiment: Kinase panel: NEK2a. The format is biochemical, human/mammalian. As to conditions: compound at 10 μM, read-out: % of activity respect of the control. The procedure: as §1

The target of another series is PIM2 (Homo sapiens, UniProt Q9P1W9). As to the kind of experiment: Kinase panel: PIM2. Type of series: biochemical, human/mammalian. To be noted: compound at 10 μM, read-out: % of activity respect of the control. As for the experimental part: as §1
For another series, the target named is PIM3 (Homo sapiens, UniProt Q86V86). Put plainly: Kinase panel: PIM3. Type of series: biochemical, human/mammalian. To be noted: compound at 10 μM, read-out: % of activity respect of the control. As for the experimental part: as §1
For a further series, the target named is Src (Homo sapiens, UniProt P12931). Put plainly: Kinase panel: Src. The format is biochemical, human/mammalian. As to conditions: compound at 10 μM, read-out: % of activity respect of the control. The procedure:
as §1

Another series addresses EPH A2 (Homo sapiens, UniProt P29317). Put plainly: Kinase panel: EPH A2. The format is biochemical, human/mammalian. To be noted: compound at 10 μM, read-out: % of activity respect of the control. The procedure:
as §1

A further series addresses SYK (Homo sapiens, UniProt P43405). As to the kind of experiment: Kinase panel: SYK. Type of series: biochemical, human/mammalian. To be noted: compound at 10 μM, read-out: % of activity respect of the control. The procedure: as §1
The next series concerns the target VEG-FR (Homo sapiens, UniProt P17948). As to the kind of experiment: Kinase panel: VEG-FR. The format is biochemical, human/mammalian. To be noted: compound at 10 μM, read-out: % of activity respect of the control. As for the experimental part:
as §1

CK2, sequence (P68400 whole entry): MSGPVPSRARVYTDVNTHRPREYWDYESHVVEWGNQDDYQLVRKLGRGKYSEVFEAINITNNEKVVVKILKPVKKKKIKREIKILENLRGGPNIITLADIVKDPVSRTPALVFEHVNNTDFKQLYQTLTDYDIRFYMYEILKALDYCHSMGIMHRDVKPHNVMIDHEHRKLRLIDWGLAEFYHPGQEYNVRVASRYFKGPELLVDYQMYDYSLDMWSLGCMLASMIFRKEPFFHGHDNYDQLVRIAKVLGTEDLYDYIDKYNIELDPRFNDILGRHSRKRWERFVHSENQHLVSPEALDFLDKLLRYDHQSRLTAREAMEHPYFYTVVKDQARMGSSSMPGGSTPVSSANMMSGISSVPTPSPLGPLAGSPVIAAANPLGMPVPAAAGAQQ
ROCK 2, sequence (O75116 whole entry): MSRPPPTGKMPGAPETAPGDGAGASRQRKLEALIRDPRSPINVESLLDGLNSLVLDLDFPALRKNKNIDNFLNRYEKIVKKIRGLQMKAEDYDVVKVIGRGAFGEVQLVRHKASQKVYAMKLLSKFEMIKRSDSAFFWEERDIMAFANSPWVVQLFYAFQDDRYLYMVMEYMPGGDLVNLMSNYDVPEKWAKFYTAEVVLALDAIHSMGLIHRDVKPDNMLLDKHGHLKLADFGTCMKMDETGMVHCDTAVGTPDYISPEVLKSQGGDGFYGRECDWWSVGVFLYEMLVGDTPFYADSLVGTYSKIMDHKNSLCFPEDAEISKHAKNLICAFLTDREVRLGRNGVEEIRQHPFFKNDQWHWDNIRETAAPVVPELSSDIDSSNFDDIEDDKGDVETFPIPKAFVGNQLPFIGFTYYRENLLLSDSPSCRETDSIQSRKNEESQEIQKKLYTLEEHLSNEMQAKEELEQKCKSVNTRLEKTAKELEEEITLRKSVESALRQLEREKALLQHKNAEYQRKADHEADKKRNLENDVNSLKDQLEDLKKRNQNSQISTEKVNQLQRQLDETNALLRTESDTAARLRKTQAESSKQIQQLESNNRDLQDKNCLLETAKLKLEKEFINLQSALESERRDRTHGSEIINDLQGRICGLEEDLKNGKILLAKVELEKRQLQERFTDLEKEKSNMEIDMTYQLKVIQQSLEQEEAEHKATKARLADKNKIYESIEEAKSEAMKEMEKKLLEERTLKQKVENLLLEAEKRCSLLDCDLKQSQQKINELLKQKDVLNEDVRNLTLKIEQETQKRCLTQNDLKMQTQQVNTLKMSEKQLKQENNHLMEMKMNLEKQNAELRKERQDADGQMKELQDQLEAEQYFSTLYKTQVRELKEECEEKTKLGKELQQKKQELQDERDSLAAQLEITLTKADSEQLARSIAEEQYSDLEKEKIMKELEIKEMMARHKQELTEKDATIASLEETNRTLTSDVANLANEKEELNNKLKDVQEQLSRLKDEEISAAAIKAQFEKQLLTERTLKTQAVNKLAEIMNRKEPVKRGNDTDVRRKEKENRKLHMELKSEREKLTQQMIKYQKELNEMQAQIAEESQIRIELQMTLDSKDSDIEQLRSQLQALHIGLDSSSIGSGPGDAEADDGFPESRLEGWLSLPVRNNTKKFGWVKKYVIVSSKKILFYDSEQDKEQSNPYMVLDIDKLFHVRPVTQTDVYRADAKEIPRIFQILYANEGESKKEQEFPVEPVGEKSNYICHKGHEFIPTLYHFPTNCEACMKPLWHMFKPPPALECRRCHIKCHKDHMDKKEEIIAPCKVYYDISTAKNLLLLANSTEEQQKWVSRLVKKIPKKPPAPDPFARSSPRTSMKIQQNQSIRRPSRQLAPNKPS
VEG-FR, sequence (P17948 27-1338): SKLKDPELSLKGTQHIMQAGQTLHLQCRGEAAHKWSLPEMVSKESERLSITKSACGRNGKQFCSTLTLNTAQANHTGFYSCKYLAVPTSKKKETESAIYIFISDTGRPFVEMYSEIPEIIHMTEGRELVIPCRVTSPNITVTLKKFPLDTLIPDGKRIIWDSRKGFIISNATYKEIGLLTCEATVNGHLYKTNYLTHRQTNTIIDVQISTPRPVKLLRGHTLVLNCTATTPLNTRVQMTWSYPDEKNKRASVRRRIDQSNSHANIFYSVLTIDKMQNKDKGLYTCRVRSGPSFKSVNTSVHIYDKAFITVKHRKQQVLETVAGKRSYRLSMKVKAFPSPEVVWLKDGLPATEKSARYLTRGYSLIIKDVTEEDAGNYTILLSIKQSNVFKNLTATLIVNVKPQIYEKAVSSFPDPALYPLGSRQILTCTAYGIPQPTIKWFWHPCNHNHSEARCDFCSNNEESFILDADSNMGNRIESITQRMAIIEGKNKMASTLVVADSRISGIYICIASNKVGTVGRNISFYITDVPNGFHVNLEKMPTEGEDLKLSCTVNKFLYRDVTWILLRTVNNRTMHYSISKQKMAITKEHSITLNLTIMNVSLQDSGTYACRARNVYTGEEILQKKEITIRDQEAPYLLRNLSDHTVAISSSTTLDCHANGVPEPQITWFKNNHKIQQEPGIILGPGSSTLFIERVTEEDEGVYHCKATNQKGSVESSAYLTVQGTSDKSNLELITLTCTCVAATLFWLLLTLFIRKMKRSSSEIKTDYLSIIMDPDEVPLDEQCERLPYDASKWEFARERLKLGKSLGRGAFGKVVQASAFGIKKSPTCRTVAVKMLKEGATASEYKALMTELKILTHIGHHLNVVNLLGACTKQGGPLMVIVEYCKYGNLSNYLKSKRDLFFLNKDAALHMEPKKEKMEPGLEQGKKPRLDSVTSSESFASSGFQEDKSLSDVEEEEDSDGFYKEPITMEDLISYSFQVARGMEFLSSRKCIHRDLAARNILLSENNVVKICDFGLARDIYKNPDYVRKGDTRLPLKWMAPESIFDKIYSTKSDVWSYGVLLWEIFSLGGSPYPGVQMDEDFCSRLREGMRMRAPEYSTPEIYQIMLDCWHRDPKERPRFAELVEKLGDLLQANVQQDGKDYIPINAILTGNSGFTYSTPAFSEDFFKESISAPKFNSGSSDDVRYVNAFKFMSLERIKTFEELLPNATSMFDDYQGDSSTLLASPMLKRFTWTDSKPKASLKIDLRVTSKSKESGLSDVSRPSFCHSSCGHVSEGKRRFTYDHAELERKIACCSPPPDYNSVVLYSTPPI
CHK2, sequence (O96017 whole entry): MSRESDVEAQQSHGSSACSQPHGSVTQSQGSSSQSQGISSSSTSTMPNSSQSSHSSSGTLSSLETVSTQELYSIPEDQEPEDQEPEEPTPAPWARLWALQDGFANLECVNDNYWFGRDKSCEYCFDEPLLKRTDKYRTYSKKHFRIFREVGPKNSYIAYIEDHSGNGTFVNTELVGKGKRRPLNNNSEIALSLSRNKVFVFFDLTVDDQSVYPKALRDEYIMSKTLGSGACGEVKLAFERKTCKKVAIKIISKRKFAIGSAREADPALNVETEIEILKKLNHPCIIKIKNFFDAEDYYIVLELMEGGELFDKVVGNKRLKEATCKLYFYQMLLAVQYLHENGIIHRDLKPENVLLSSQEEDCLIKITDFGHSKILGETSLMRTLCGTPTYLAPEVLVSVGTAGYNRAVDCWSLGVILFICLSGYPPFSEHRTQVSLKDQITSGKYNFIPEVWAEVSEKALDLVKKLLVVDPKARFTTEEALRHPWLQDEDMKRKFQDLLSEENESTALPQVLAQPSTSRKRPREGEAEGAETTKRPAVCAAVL
EPH A2, sequence (P29317 24-976): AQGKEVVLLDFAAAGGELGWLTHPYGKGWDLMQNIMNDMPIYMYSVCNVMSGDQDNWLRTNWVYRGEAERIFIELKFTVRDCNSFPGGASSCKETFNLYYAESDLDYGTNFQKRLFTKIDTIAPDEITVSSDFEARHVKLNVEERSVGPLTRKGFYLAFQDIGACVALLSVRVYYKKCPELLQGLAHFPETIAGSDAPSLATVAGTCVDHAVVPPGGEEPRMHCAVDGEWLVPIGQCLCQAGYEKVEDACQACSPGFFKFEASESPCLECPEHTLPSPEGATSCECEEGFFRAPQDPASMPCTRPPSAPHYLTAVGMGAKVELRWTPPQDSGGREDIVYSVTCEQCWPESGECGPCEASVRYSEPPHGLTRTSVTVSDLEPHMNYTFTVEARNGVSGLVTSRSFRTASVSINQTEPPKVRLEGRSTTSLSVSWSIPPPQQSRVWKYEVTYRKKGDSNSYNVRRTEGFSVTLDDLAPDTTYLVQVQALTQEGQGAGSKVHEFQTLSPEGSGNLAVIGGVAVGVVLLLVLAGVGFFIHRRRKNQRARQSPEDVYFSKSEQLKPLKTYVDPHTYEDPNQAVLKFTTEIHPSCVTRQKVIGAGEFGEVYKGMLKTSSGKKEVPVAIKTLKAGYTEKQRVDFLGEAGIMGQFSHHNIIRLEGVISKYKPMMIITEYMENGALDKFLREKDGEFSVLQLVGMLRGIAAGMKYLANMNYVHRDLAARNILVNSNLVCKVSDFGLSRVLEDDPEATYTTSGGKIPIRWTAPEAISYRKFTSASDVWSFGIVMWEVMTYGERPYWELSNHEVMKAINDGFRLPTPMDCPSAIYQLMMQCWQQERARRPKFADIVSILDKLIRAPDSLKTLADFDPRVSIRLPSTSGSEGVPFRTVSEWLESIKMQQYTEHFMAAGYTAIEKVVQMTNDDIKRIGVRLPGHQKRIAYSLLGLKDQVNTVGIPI

In series [1], `CC(c1ccccc1)n1c(=O)[nH]c2ncc(-c3ccc(F)cc3)nc21` (centres unmarked) [Compound 1] came in with a CLint below 0.5 mL/min/g. In addition, the remaining activity at 10 µM at ROCK 2 amounted to 105%; at MNK1, 83%; at MAPKAP-K2 it was 90%; at CHK2 it was 97%; at PLK1, 111%; at PLK1 (Okadaic Acid), 96%. Further, the remaining activity at 10 µM came to 75% at CK1; 107% on CK2; 100% on DYRK2; 117% at NEK2a; 113% on PIM2; 83% on PIM3. For the same compound, the remaining activity at 10 µM on Src came to 80%; at EPH A2 it was 105%; at SYK, 97%; on VEG-FR it was 117%. Moreover, the “% of activity respect of the control” value in the series with PHK stood at 103%; in the series on AMPK it was 97%.
For `O=c1[nH]c2ncc(-c3ccc(F)cc3)nc2n1CC1CC1` [Compound 10], the remaining activity at 10 µM worked out at 78% at ROCK 2; 93% on MNK1; 104% on MAPKAP-K2; 97% at CHK2; 102% at PLK1; 109% at PLK1 (Okadaic Acid). In addition, the remaining activity at 10 µM on CK1 is 75%; at CK2 it was 105%; at DYRK2, 94%; on NEK2a, 101%; at PIM2, 111%; on PIM3 it was 89%. In addition, the remaining activity at 10 µM at Src amounted to 98%; at EPH A2, 96%; at SYK, 98%; on VEG-FR, 98%. In addition, the “% of activity respect of the control” value in the series on PHK was 97%; in the series on AMPK it was 94%.
Compound `O=c1[nH]c2ncc(-c3ccc(F)cc3)nc2n1C1CCCCC1` [Compound 12, 1-Cyclohexyl-6-(4-fluorophenyl)-1H-imidazo[4,5-b]pyrazin-2(3H)-one] had a CLint in series [1] of 0.7 mL/min/g. For the same compound, the remaining activity at 10 µM on ROCK 2 came out at 84%; at MNK1 it was 93%; on MAPKAP-K2, 101%; on CHK2 it was 96%; on PLK1, 117%; at PLK1 (Okadaic Acid) it was 96%. In addition, the remaining activity at 10 µM is 98% on CK1; 111% at CK2; 99% at DYRK2; 93% at NEK2a; 111% on PIM2; 90% at PIM3. Besides, the remaining activity at 10 µM at Src came out at 94%; on EPH A2 it was 97%; on SYK, 100%; at VEG-FR, 107%. Also, the “% of activity respect of the control” value in the series with PHK was 110%; in the series with AMPK it was 100%.
Consider `C[C@H](c1ccccc1)n1c(=O)[nH]c2ncc(-c3ccccc3)nc21` [Compound 14, (R)-6-Phenyl-1-(1-phenylethyl)-1H-imidazo[4,5-b]pyrazin-2(3H)-one], for which the remaining activity at 10 µM on ROCK 2 stood at 85%; on MNK1, 76%; on MAPKAP-K2, 84%; on CHK2, 93%; on PLK1, 104%; at CK1, 71%. Moreover, the remaining activity at 10 µM is 105% on CK2; 89% on DYRK2; 96% at NEK2a; 96% on PIM2; 83% at PIM3; 70% at Src. Also, the remaining activity at 10 µM on EPH A2 stood at 89%; on SYK, 84%; at VEG-FR it was 73%. In addition, the “% of activity respect of the control” value is 94% in the series with PHK and 95% with AMPK.
Compound `O=c1[nH]c2ncc(-c3ccccc3CO)nc2n1C1CCCCC1` [Compound 28] displayed a CLint in series [1] of 2.4 mL/min/g.
